According to patent US20200288710A1, “SUBSTITUTED SULPHONAMIDES FOR CONTROLLING ANIMAL PESTS” (BAYER CROPSCIENCE AKTIENGESELLSCHAFT, priority 2016, published 2020):

Legend:
Type in all cases: in vivo
Myzus persicae [1] = assay: Myzus persicae oral test; settings: 120 h, 20 ppm, oral uptake, after 5 days, read-out: efficacy
Outline: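 Aphids of mixed ages imbibe, through parafilm, compound solution (acetone stock, water-diluted) combined with sugar-supplemented IPL41 medium to 200 μl. Efficacy read at day 5 as percent killed, 0% meaning no deaths.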

Myzus persicae [2] = assay: Myzus persicae spray test (bell pepper plants); settings: 144 h, after 6 days, read-out: efficacy (kill in %)
Procedure: Myzus persicae—Spray Test Solvent: 14 parts by weight of dimethylformamide Emulsifier: alkylaryl polyglycol ether To produce a suitable preparation of active compound, 1 part by weight of active compound is dissolved using the specified parts by weight of solvent and made up with water containing an emulsifier concentration of 1000 ppm until the desired concentration is attained. To produce further test concentrations, the formulation is diluted with emulsifier-containing water. If the addition of ammonium salts or/and penetrants is required, these are each added in a concentration of 1000 ppm to the formulation solution. Bell pepper plants (Capsicum annuum) severely infested with the green peach aphid (Myzus persicae) are treated by spraying with the active compound preparation in the desired concentration. After 6 days, the kill in % is determined. 100% means that all of the aphids have been killed; 0% means that none of the aphids have been killed.

Meloidogyne incognita = Meloidogyne incognita test; settings: 336 h, lettuce, after 14 days, read-out: nematicidal efficacy (formation of galls)
Outline: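 Gall formation on lettuce roots scored after 14 days: 0% means gall count equals untreated control, 100% means none. Sand vessels held the compound (acetone concentrate diluted in water), southern root-knot nematode egg/larvae suspension and lettuce seeds.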

Aphis gossypii = Aphis gossypii spray test; settings: 100 ppm, cotton plants, after 6 days
Procedure: Aphis gossypii—Spray Test Solvent: 14 parts by weight of dimethylformamide Emulsifier: alkylaryl polyglycol ether To produce a suitable preparation of active compound, 1 part by weight of active compound is dissolved using the specified parts by weight of solvent and made up with water containing an emulsifier concentration of 1000 ppm until the desired concentration is attained. To produce further test concentrations, the formulation is diluted with emulsifier-containing water. If the addition of ammonium salts or/and penetrants is required, these are each added in a concentration of 1000 ppm to the formulation solution. Cotton plants (Gossypium hirsutum) which are heavily infested by the cotton aphid (Aphis gossypii) are sprayed with an active compound preparation of the desired concentration. After 6 days, the kill in % is determined. 100% means that all the aphids have been killed; 0% means that no aphids have been killed.

Lucilia cuprina = Lucilia cuprina test; settings: 48 h, L1 larvae, after 2 days, read-out: efficacy (kill in %)
Outline: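 About 20 L1 larvae were held on minced horsemeat treated with compound, which was formulated in DMSO and diluted with water. Percent kill was scored after 2 days.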

Musca domestica = Musca domestica test; settings: 48 h, adult houseflies, after 2 days, read-out: efficacy (kill in %)
Procedure: Musca domestica Test Solvent: dimethyl sulphoxide To produce a suitable preparation of active compound, 10 mg of active compound are mixed with 0.5 ml of dimethyl sulphoxide, and the concentrate is diluted with water to the desired concentration. Vessels containing a sponge treated with sugar solution and the active compound preparation of the desired concentration are populated with 10 adult houseflies (Musca domestica). After 2 days, the kill in % is determined. 100% means that all of the flies have been killed; 0% means that none of the flies have been killed.

Myzus persicae [3] = assay: Myzus persicae spray test (Chinese cabbage leaf discs); settings: foliar, 120 h, 500 g/ha, after 5-6 days, read-out: efficacy
Outline: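 Formulated compound in acetone/dimethylformamide, diluted in water with 1000 ppm emulsifier, was sprayed onto Brassica pekinensis leaf discs carrying mixed-stage Myzus persicae. Percent mortality was read 5-6 days later (0% = no aphids killed, 100% = all killed).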

Phaedon cochleariae = Phaedon cochleariae spray test; settings: foliar, 168 h, Chinese cabbage leaf discs, larvae, after 7 days, read-out: efficacy
Outline: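 Mortality of beetle larvae scored at day 7, expressed as % (0% none killed, 100% all). Formulation: compound in solvent, made up and further diluted with emulsifier-containing water (1000 ppm emulsifier).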

Boophilus microplus = Boophilus microplus injection test; settings: 20 μg/animal, injection into engorged adult female cattle ticks, after 7 days
Procedure: Boophilus microplus—Injection Test Solvent: dimethyl sulphoxide To produce a suitable preparation of active compound, 10 mg of active compound are mixed with 0.5 ml of solvent and the concentrate is diluted with solvent to the desired concentration. 1 μl of the active compound solution is injected into the abdomen of 5 engorged adult female cattle ticks (Boophilus microplus). The animals are transferred into dishes and kept in a climate-controlled room. Efficacy is assessed after 7 days by laying of fertile eggs. Eggs which are not externally visibly fertile are stored in a climate-controlled cabinet until the larvae hatch after about 42 days. An efficacy of 100% means that none of the ticks has laid any fertile eggs; 0% means that all the eggs are fertile.

Tetranychus urticae = Tetranychus urticae spray test, OP-resistant; settings: foliar, 144 h, bean leaf discs, after 6 days, read-out: efficacy
Procedure: Tetranychus urticae—Spray Test, OP-Resistant
To produce a suitable preparation of active compound, 1 part by weight of active compound is dissolved using the specified parts by weight of solvent and made up with water containing an emulsifier concentration of 1000 ppm until the desired concentration is attained. To produce further test concentrations, the formulation is diluted with emulsifier-containing water.
Discs of bean leaves (Phaseolus vulgaris) infested with all stages of the greenhouse red spider mite (Tetranychus urticae) are sprayed with an active compound preparation of the desired concentration.
After 6 days, the efficacy in % is determined. 100% means that all the spider mites have been killed; 0% means that no spider mites have been killed.

## COc1ccccc1S(=O)(=O)NC(=O)c1cn(C)c(-c2ncccc2F)n1 [Example 538]
Myzus persicae [1]
  pest or weed control at 20 ppm: 100%
Myzus persicae [2]
  pest or weed control at 100 ppm: 100%
Meloidogyne incognita
  pest or weed control at 20 ppm: 90%

## Cc1c(C(=O)NS(=O)(=O)c2ccccc2Cl)nc(-c2c(F)cccc2F)n1C [Example 194]
Myzus persicae [1]
  pest or weed control at 20 ppm: 100%
Meloidogyne incognita
  pest or weed control at 20 ppm: 90%
Aphis gossypii
  efficacy (kill in %): 100%

## CCn1cc(C(=O)NS(=O)(=O)c2cc(OC)ccc2Cl)nc1-c1ccccc1Cl [Example 68]
Lucilia cuprina
  pest or weed control at 100 ppm: 100%
Musca domestica
  pest or weed control at 100 ppm: 80%
Myzus persicae [1]
  pest or weed control at 20 ppm: 100%
Myzus persicae [2]
  pest or weed control at 100 ppm: 100%
Meloidogyne incognita
  pest or weed control at 20 ppm: 90%

## Cc1[nH]c(-c2ccc(Cl)c(Cl)c2)nc1C(=O)NS(=O)(=O)C(C)C [Example 237]
Myzus persicae [1]
  pest or weed control at 20 ppm: 100%
Myzus persicae [2]
  pest or weed control at 100 ppm: 90%

## Cc1nc(C)c(S(=O)(=O)NC(=O)c2cn(C)c(-c3c(F)cccc3F)n2)s1 [Example 347]
Myzus persicae [1]
  pest or weed control at 20 ppm: 90%
Myzus persicae [2]
  pest or weed control at 100 ppm: 90%

## Cc1cccc(C)c1S(=O)(=O)NC(=O)c1cn(C)c(-c2c(F)cccc2F)n1 [Example 186]
Lucilia cuprina
  pest or weed control at 100 ppm: 100%
Myzus persicae [3]
  pest or weed control at 500 g/ha: 100%
Musca domestica
  pest or weed control at 100 ppm: 85%
Myzus persicae [1]
  pest or weed control at 20 ppm: 100%
Phaedon cochleariae
  pest or weed control at 500 g/ha: 100%
Meloidogyne incognita
  pest or weed control at 20 ppm: 90%

## Cc1ccc(C)c(S(=O)(=O)NC(=O)c2cn(C)c(-c3c(F)cccc3F)n2)c1 [Example 394]
Lucilia cuprina
  pest or weed control at 100 ppm: 95%
Myzus persicae [3]
  pest or weed control at 500 g/ha: 100%
Musca domestica
  pest or weed control at 100 ppm: 100%
Myzus persicae [1]
  pest or weed control at 20 ppm: 100%
Phaedon cochleariae
  pest or weed control at 500 g/ha: 100%
Meloidogyne incognita
  pest or weed control at 20 ppm: 90%

## Cc1ccc(C)c(S(=O)(=O)NC(=O)c2cn(C)c(-c3cccc4ccccc34)n2)c1 [Example 502]
Myzus persicae [1]
  pest or weed control at 20 ppm: 100%
Phaedon cochleariae
  pest or weed control at 500 g/ha: 100%
Meloidogyne incognita
  pest or weed control at 20 ppm: 100%
Aphis gossypii
  efficacy (kill in %): 95%

## Cc1ccccc1S(=O)(=O)NC(=O)c1cn(C)c(-c2ccccc2-c2ccccc2)n1 [Example 533]
Myzus persicae [1]
  pest or weed control at 20 ppm: 100%
Myzus persicae [2]
  pest or weed control at 100 ppm: 90%

## Cc1ccccc1S(=O)(=O)NC(=O)c1cn(C)c(-c2c(C)cccc2C)n1 [Example 478]
Myzus persicae [1]
  pest or weed control at 20 ppm: 100%
Myzus persicae [2]
  pest or weed control at 100 ppm: 99%
Meloidogyne incognita
  pest or weed control at 20 ppm: 90%

## CCc1ccccc1S(=O)(=O)NC(=O)c1cn(C)c(-c2ccccc2Cl)n1 [Example 219]
Lucilia cuprina
  pest or weed control at 100 ppm: 100%
Myzus persicae [3]
  pest or weed control at 500 g/ha: 100%
Musca domestica
  pest or weed control at 100 ppm: 85%
Myzus persicae [1]
  pest or weed control at 20 ppm: 100%
Meloidogyne incognita
  pest or weed control at 20 ppm: 90%
Boophilus microplus
  efficacy (laying of fertile eggs): 80%

## Cc1ccccc1S(=O)(=O)NC(=O)c1cn(C)c(-c2ccc(Cl)c(Cl)c2)n1 [Example 536]
Myzus persicae [1]
  pest or weed control at 20 ppm: 100%
Myzus persicae [2]
  pest or weed control at 100 ppm: 80%
Meloidogyne incognita
  pest or weed control at 20 ppm: 90%

## CCn1c(C(=O)NS(=O)(=O)c2ccccc2Br)nc(-c2c(F)cccc2F)c1C [Example 415]
Myzus persicae [1]
  pest or weed control at 20 ppm: 100%
Myzus persicae [2]
  pest or weed control at 100 ppm: 100%
Meloidogyne incognita
  pest or weed control at 20 ppm: 100%

## Cn1cc(C(=O)NS(=O)(=O)Cc2ccccc2)nc1-c1ccccc1Cl [Example 60]
Myzus persicae [1]
  pest or weed control at 20 ppm: 100%
Myzus persicae [2]
  pest or weed control at 100 ppm: 85%
Meloidogyne incognita
  pest or weed control at 20 ppm: 100%

## Cc1ccccc1S(=O)(=O)NC(=O)c1cn(C)c(-c2cccc(F)c2F)n1 [Example 518]
Myzus persicae [1]
  pest or weed control at 20 ppm: 100%
Myzus persicae [2]
  pest or weed control at 100 ppm: 95%
Meloidogyne incognita
  pest or weed control at 20 ppm: 90%

## Cc1c(C(=O)NS(=O)(=O)c2ccccc2Br)nc(-c2c(F)cccc2F)n1C [Example 195]
Myzus persicae [1]
  pest or weed control at 20 ppm: 100%
Phaedon cochleariae
  pest or weed control at 500 g/ha: 100%
Tetranychus urticae
  pest or weed control at 500 g/ha: 90%
Myzus persicae [2]; 20 ppm
  pest or weed control at 20 ppm: 80%
Meloidogyne incognita
  pest or weed control at 20 ppm: 90%

## Cc1c(C(=O)NS(=O)(=O)c2ccccc2Cl)nc(-c2ccccc2Cl)n1C [Example 103]
Myzus persicae [1]
  pest or weed control at 20 ppm: 100%
Meloidogyne incognita
  pest or weed control at 20 ppm: 100%
Aphis gossypii
  efficacy (kill in %): 98%

## Cn1cc(C(=O)NS(=O)(=O)c2ccc(Cl)cc2Cl)nc1-c1ccccc1Cl [Example 231]
Lucilia cuprina
  pest or weed control at 100 ppm: 100%
Myzus persicae [3]
  pest or weed control at 500 g/ha: 90%
Musca domestica
  pest or weed control at 100 ppm: 100%
Phaedon cochleariae
  pest or weed control at 500 g/ha: 100%
Meloidogyne incognita
  pest or weed control at 20 ppm: 100%

## Cc1cccc(Cl)c1S(=O)(=O)NC(=O)c1cn(C)c(-c2ncccc2Cl)n1 [Example 576]
Lucilia cuprina
  pest or weed control at 100 ppm: 100%
Myzus persicae [3]
  pest or weed control at 500 g/ha: 100%
Musca domestica
  pest or weed control at 100 ppm: 100%
Myzus persicae [1]
  pest or weed control at 20 ppm: 100%
Phaedon cochleariae
  pest or weed control at 500 g/ha: 100%

## Cc1[nH]c(-c2ccc(F)cc2F)nc1C(=O)NS(=O)(=O)c1ccccc1Cl [Example 616]
Myzus persicae [1]
  pest or weed control at 20 ppm: 100%
Myzus persicae [2]
  pest or weed control at 100 ppm: 97%
Meloidogyne incognita
  pest or weed control at 20 ppm: 100%

## Cc1[nH]c(C(=O)NS(=O)(=O)c2ccccc2Br)nc1-c1c(F)cccc1F [Example 146]
Myzus persicae [2]
  pest or weed control at 100 ppm: 90%
